Test results from US9796711B2, “Substituted pyrazolo[3,4-b]pyridin-6-carboxylic acids and method of use” (AbbVie S.àr.l., priority 2015, dated 2017).

Key:
ΔF508-CFTR [1] = target: T1, ΔF508-CFTR (Homo sapiens, UniProt P13569, DEL508-508); test: CFTR cell surface levels using HRP-tagged ΔF508-CFTR expressing CFBE cells, in the presence of a co-corrector; assay type: cell-based; settings: HRP-tagged ΔF508-CFTR expressing CFBE cells, in the presence of 3 μM co-corrector; for EC50: read-out: EC50
T1 construct: host or cells: CFBE41o-, doxycycline-inducible
Procedure, shortened: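 Cells were seeded with 0.5 μg/mL doxycycline and held 68 h at 37 °C. Test compounds plus 3 μM co-corrector (final 0.1% DMSO) were then added for 20 h at 33 °C. Washed cells received HRP substrate, and luminescence was normalized between DMSO and 3 μM co-corrector controls.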

ΔF508-CFTR [2] = target: T1, ΔF508-CFTR; test: CFTR cell surface levels using HRP-tagged ΔF508-CFTR expressing CFBE cells, intrinsic corrector capacity; assay type: cell-based; settings: for EC50: read-out: EC50
Procedure, shortened: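 Here the cells express ΔF508-CFTR with horseradish peroxidase inserted in extracellular loop 4, so only rescued channel at the surface gives luminescent signal. Compounds act on their own, 20 h at the reduced temperature of 33 °C; values are percent activity relative to DMSO and a 3 μM corrector.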

[3] = HRP-tagged ΔF508-CFTR CFBE41o- cells, compounds alone (intrinsic corrector capacity), 20 hours at 33° C., positive control 3 μM corrector
[4] = HRP-tagged ΔF508-CFTR CFBE41o- cells, compounds alone (intrinsic corrector capacity), 20 hours at 33° C.
[5] = HRP-tagged ΔF508-CFTR expressing CFBE cells, intrinsic corrector capacity (no co-corrector), 33° C., 20 hours

T1 sequence (P13569 with tags, fused parts or gaps DEL508-508): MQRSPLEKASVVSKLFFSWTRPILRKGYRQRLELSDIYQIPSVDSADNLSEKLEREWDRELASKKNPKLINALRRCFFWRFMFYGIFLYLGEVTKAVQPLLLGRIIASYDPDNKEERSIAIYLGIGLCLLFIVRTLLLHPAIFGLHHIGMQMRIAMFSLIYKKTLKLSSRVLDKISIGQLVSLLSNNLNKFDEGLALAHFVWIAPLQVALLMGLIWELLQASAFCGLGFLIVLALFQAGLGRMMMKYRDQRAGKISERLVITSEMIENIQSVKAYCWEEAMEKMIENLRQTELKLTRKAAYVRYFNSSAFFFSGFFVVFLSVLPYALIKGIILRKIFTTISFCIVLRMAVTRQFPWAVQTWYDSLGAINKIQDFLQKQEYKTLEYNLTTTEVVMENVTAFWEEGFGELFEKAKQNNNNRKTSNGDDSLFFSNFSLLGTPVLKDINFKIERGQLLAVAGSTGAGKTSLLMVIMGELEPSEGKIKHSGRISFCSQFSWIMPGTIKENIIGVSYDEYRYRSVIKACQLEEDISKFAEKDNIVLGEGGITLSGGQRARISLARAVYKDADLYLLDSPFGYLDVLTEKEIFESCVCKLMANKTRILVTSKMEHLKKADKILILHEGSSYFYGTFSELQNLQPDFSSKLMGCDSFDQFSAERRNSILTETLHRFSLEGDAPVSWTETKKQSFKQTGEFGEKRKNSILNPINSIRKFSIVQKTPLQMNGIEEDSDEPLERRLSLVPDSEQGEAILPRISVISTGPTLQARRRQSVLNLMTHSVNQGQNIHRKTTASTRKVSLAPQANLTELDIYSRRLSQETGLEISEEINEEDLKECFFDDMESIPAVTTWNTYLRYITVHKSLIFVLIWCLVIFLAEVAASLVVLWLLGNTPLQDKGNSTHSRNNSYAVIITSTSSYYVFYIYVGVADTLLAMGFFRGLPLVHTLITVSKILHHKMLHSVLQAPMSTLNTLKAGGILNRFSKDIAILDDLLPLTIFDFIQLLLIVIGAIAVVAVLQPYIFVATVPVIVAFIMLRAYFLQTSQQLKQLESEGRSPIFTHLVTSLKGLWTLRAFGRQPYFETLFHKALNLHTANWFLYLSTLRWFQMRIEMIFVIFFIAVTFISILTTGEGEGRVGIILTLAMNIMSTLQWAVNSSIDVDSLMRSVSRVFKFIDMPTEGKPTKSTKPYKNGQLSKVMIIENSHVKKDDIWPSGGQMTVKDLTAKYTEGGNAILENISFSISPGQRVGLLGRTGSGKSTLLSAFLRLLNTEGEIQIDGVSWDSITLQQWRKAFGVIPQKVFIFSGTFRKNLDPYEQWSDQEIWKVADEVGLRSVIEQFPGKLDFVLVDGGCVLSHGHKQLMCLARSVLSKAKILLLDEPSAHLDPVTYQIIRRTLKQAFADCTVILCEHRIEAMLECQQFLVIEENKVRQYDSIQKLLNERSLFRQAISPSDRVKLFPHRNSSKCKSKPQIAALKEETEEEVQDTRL

| SMILES | % Activation (ΔF508-CFTR [1]) | EC50 (ΔF508-CFTR [1]) | % Activation (ΔF508-CFTR [2]; [3]) | EC50 (ΔF508-CFTR [2]; [4]) | % Activation (ΔF508-CFTR [2]; [5]) | EC50 (ΔF508-CFTR [2]; [5]) |
| --- | --- | --- | --- | --- | --- | --- |
| Cc1cccc(-n2nc(C(C)C)c3c(N4CC5(CCOCC5)C4)cc(C(=O)O)nc32)c1 [compound 258, 1-(3-methylphenyl)-4-(7-oxa-2-azaspiro[3.5]nonan-2-yl)-3-(propan-2-yl)-1H-pyrazolo[3,4-b]pyridine-6-carboxylic acid] | 364.3% | 919 nM | 169.7% | 1290 nM |  |  |
| Cc1nn(-c2ccccc2)c2nc(C(=O)O)cc(N3CCC(F)CC3)c12 [compound 297, 4-(4-fluoropiperidin-1-yl)-3-methyl-1-phenyl-1H-pyrazolo[3,4-b]pyridine-6-carboxylic acid] | 184.07% | 3340 nM | 50.78% | 2230 nM |  |  |
| CC(C)c1nn(-c2cccc(F)c2)c2nc(C(=O)O)cc(-c3ccc(N4CCC(C#N)CC4)nc3)c12 [compound 285, 4-[6-(4-cyanopiperidin-1-yl)pyridin-3-yl]-1-(3-fluorophenyl)-3-(propan-2-yl)-1H-pyrazolo[3,4-b]pyridine-6-carboxylic acid] | 428% | 261 nM | 255.73% | 655 nM |  |  |
| O=C(O)c1cc(N2CCC(CN3CCC(F)(F)C3)CC2)c2c(C3CCC3)nn(-c3ccccc3)c2n1 [compound 828, 3-cyclobutyl-4-{4-[(3,3-difluoropyrrolidin-1-yl)methyl]piperidin-1-yl}-1-phenyl-1H-pyrazolo[3,4-b]pyridine-6-carboxylic acid] | 518.35% | 47.9 nM |  |  | 283.5% | 83.2 nM |
| Cc1cccc(-n2nc(C(C)C)c3c(N4CCC5(C4)CC5(F)F)cc(C(=O)O)nc32)c1 (stereo not drawn) [compound 271, 4-(1,1-difluoro-5-azaspiro[2.4]heptan-5-yl)-1-(3-methylphenyl)-3-(propan-2-yl)-1H-pyrazolo[3,4-b]pyridine-6-carboxylic acid] | 323.5% | 396 nM | 144.2% | 924 nM |  |  |
| CC(C)c1nn(-c2cccc(F)c2)c2nc(C(=O)O)cc(-c3ccc(N4CCC(C#N)CC4)cc3)c12 [compound 286, 4-[4-(4-cyanopiperidin-1-yl)phenyl]-1-(3-fluorophenyl)-3-(propan-2-yl)-1H-pyrazolo[3,4-b]pyridine-6-carboxylic acid] | 448.23% | 256 nM | 259.83% | 544 nM |  |  |
| Cc1nn(C2CCCCC2)c2nc(C(=O)O)cc(-c3cnc(N(C)C)nc3)c12 [compound 75, 1-cyclohexyl-4-[2-(dimethylamino)pyrimidin-5-yl]-3-methyl-1H-pyrazolo[3,4-b]pyridine-6-carboxylic acid] | 254% | 1150 nM | 117.1% | 3130 nM |  |  |
| Cc1nn(-c2ccccc2)c2nc(C(=O)O)cc(OCC3(F)CCN(C)C3)c12 (stereo not drawn) [compound 378, 4-[(3-fluoro-1-methylpyrrolidin-3-yl)methoxy]-3-methyl-1-phenyl-1H-pyrazolo[3,4-b]pyridine-6-carboxylic acid] | 140.5% | 3340 nM | 14.56% | 5010 nM |  |  |
| O=C(O)c1cc(N2CC[C@H](F)C2)c2c(C3CCC3)nn(-c3ccccc3)c2n1 [compound 527, 3-cyclobutyl-4-[(3S)-3-fluoropyrrolidin-1-yl]-1-phenyl-1H-pyrazolo[3,4-b]pyridine-6-carboxylic acid] | 291.2% | 1030 nM |  |  | 100.1% | 1160 nM |
| CC(C)c1nn(-c2ccc(F)c(F)c2)c2nc(C(=O)O)cc(-c3ccc(N4CCOCC4)cc3)c12 [compound 243, 1-(3,4-difluorophenyl)-4-[4-(morpholin-4-yl)phenyl]-3-(propan-2-yl)-1H-pyrazolo[3,4-b]pyridine-6-carboxylic acid] | 402.73% | 408 nM | 224.73% | 660 nM |  |  |
| O=C(O)c1cc(N2CCC(N3CCOCC3)CC2)c2c(C3CCC3)nn(-c3ccc4c(c3)OC(F)(F)O4)c2n1 [compound 906, 3-cyclobutyl-1-(2,2-difluoro-2H-1,3-benzodioxo1-5-yl)-4-[4-(morpholin-4-yl)piperidin-1-yl]-1H-pyrazolo[3,4-b]pyridine-6-carboxylic acid] | 485.34% | 72.8 nM |  |  | 276.92% | 146 nM |
| O=C(O)c1cc(N2CCC(CN3CCC4(COC4)C3)CC2)c2c(C3CCC3)nn(-c3ccccc3)c2n1 [compound 842, 3-cyclobutyl-4-{4-[(2-oxa-6-azaspiro[3.4]octan-6-yl)methyl]piperidin-1-yl}-1-phenyl-1H-pyrazolo[3,4-b]pyridine-6-carboxylic acid] | 370% | 582 nM |  |  | 162.5% | 628 nM |
| CC(C)c1nn(C2CCCCC2)c2nc(C(=O)O)cc(C3=CCN(C(=O)OC(C)(C)C)CC3)c12 [compound 371, 4-[1-(tert-butoxycarbonyl)-1,2,3,6-tetrahydropyridin-4-yl]-1-cyclohexyl-3-(propan-2-yl)-1H-pyrazolo[3,4-b]pyridine-6-carboxylic acid] | 283.6% | 1100 nM | 116.35% | 1310 nM |  |  |
| O=C(O)c1cc(N2CCC(CN3CC[C@@H](F)C3)CC2)c2c(C3CCC3)nn(-c3ccccc3)c2n1 [compound 832, 3-cyclobutyl-4-(4-{[(3R)-3-fluoropyrrolidin-1-yl]methyl}piperidin-1-yl)-1-phenyl-1H-pyrazolo[3,4-b]pyridine-6-carboxylic acid] | 526.6% | 1070 nM |  |  | 250.5% | 151 nM |
| Cc1cccc(-n2nc(C(C)C)c3c(N4CCC5C(CCN5C(=O)OC(C)(C)C)C4)cc(C(=O)O)nc32)c1 (stereo not drawn) [compound 234, 4-[1-(tert-butoxycarbonyl)octahydro-5H-pyrrolo[3,2-c]pyridin-5-yl]-1-(3-methylphenyl)-3-(propan-2-yl)-1H-pyrazolo[3,4-b]pyridine-6-carboxylic acid] | 510.27% | 368 nM | 292.97% | 464 nM |  |  |
| CC(C)c1nn(-c2cccc(N(C)C)c2)c2nc(C(=O)O)cc(-c3cnc(N4CCOCC4)nc3)c12 [compound 84, 1-[3-(dimethylamino)phenyl]-4-[2-(morpholin-4-yl)pyrimidin-5-yl]-3-(propan-2-yl)-1H-pyrazolo[3,4-b]pyridine-6-carboxylic acid] | 541.12% | 734 nM | 289.83% | 829 nM |  |  |
| Cc1nn(-c2ccccc2)c2nc(C(=O)O)cc(N3CC(N4CCOCC4)C3)c12 [compound 302, 3-methyl-4-[3-(morpholin-4-yl)azetidin-1-yl]-1-phenyl-1H-pyrazolo[3,4-b]pyridine-6-carboxylic acid] | 131.6% | 7500 nM | 18.02% | 7500 nM |  |  |
| CC(C)c1nn(C2CCCCC2)c2nc(C(=O)O)cc(OCC3CCOCC3)c12 [compound 603, 1-cyclohexyl-4-[(oxan-4-yl)methoxy]-3-(propan-2-yl)-1H-pyrazolo[3,4-b]pyridine-6-carboxylic acid] | 273.3% | 870 nM |  |  | 92.66% | 1760 nM |
